Experimental data as given in patent US10240124B2, “Cell culture substrate comprising a laminin and a cadherin” (BioLamina AB, priority 2011, dated 2019).

Tests used:
Human ES cells = test: FACS analysis for OCT4 (Example 1); assay type: cell-based; conditions: after several single cell suspension passages, O3 medium, FIG. 9 and 10
Procedure: OCT4 expression was analyzed as described in Ludwig, T. E. et al. Derivation of human embryonic stem cells in defined conditions. Nat. Biotechnol. 24, 185-187 (2006). Cells were run on FACSCalibur Flow Cytometer (Becton Dickinson). Data were analyzed with CellQuest software (Becton Dickinson).

SCID mouse = test: Teratoma formation; assay type: in vivo; conditions: HS181 13 passages, H1 12 passages in O3; H1 7 passages in TeSR2
Procedure: Teratoma formation experiments were performed by implantation of approximately 10^6 cells beneath the testicular capsule of a young (7-week-old) severe combined immunodeficiency (SCID) mouse. Three animals per each cell line were used. Teratoma growth was observed by weekly palpation, and the mice were sacrificed eight weeks after the implantation. The teratomas were fixed, and sections were stained with hematoxylin and eosin (HE) or with hematoxylin, eosin and PAS (HE-PAS). […] All animal experiments were performed at the infection-free animal facility of the Karolinska University Hospital in accordance with ethical committee approval.

LN-521: protein formed by joining α5, β2 and γ1 laminin chains; human recombinant, produced in HEK293 cells
percentage of Oct4 positive (pluripotent) cells compared with Matrigel (Human ES cells): much higher percentage
histology of teratomas formed in SCID mice (SCID mouse): development of tissues containing all three germ lineages
